# Experimental data as given in PMC6934184, “Selective DNA-PKcs inhibition extends the therapeutic index of localized radiotherapy and chemotherapy” (The Journal of Clinical Investigation, 2019).
# Biological target: T1, EGFR (ErbB1) L861Q (Homo sapiens, UniProt P00533, L861Q)
# T1 construct: purchased Thermo Fisher Scientific (Life Technologies) SelectScreen
# Test: SelectScreen Z'LYTE
# Format: biochemical
# How it was run: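 NU5455 was profiled across the SelectScreen Broad panel of kinase activity and binding assays. Z'LYTE reactions such as CSF1R ran at apparent Km ATP, while the Adapta CAMK1 assay used ATP listed as 10. Values are given as percent.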
# T1 sequence (P00533 25-1210 L861Q): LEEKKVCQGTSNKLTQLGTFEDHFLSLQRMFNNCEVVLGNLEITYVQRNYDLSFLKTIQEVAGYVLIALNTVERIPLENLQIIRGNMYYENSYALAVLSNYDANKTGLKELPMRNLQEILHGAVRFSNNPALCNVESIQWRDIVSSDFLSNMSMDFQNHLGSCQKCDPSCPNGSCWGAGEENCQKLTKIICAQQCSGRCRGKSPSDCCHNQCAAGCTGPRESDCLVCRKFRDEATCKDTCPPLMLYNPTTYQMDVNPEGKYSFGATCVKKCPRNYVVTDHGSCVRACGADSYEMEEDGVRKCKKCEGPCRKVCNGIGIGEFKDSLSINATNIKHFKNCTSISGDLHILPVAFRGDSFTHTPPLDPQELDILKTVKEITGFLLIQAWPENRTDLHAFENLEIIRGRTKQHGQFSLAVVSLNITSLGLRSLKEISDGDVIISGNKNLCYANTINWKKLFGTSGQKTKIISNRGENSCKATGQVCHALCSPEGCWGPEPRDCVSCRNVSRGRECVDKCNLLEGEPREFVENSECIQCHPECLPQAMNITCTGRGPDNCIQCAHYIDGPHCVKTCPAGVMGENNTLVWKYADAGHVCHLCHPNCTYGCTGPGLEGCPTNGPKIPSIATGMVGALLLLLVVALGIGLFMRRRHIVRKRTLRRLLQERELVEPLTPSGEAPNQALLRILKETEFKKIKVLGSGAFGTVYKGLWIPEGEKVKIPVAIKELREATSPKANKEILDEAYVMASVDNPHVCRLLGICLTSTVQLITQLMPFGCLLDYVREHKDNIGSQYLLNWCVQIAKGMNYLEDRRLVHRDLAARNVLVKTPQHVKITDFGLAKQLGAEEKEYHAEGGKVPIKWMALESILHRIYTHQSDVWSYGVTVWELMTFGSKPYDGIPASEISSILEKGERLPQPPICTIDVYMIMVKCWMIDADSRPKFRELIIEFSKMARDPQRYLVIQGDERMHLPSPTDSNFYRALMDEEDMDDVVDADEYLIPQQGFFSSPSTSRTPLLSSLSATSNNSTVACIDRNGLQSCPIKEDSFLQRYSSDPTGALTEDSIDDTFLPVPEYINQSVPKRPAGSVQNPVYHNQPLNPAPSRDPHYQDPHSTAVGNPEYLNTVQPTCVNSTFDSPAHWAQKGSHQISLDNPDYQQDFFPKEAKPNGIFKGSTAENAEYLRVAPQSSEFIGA
compound,measurement,value
CN(C(=O)CN1CCOCC1)c1ccc2sc3c(-c4cccc5c(=O)cc(N6CC7CCC(C6)O7)oc45)cccc3c2c1 [NU5455],inhibition at 1 µM,2.2%
